This is an account of results in PubChem BioAssay (NCI).

Values joined by “and” are separate entries in the source; they are usually repeats but may differ in a detail not shown here. Equal entries are not always repeated.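 Step 1: Grow cells in 96-well plates. Step 2: Expose to compound for 48 hours at 5 concentrations. Step 3: Interpolate endpoints linearly; if unreached, use highest concentration. GI50 is the concentration that inhibits growth by half. Definition used: TGI = concentration required for complete inhibition of growth.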

Among the test systems are HCT-116 colon; SK-MEL-2 melanoma; SN12C renal; SF-268 CNS; U251 CNS; EKVX NSCLC; UO-31 renal; CAKI-1 renal; CCRF-CEM leukemia; M19-MEL melanoma.
Holding throughout (assay): NCI-60 cell line screen, 48 h

Turning to `CC(C)S(=O)(=O)n1c(N)nc2ccc(/C(=N/O)c3ccccc3)cc21`, the TGI is 40.2 µM in the assay with HCT-116 colon; 54.1 µM with SK-MEL-2 melanoma; over 100 µM in the assay on SN12C renal; over 100 µM with SF-268 CNS; over 100 µM in the assay with U251 CNS; 59.1 µM with EKVX NSCLC. Also, the TGI with UO-31 renal was 47 µM; in the assay on CAKI-1 renal, 76.9 µM; with CCRF-CEM leukemia, 57.2 µM; in the assay on M19-MEL melanoma it was over 100 µM.
Regarding `O=C(O)C(O)C(O)C1[O][Sb][O]C1CO` (stereo not given), the GI50 was over 100 µM with HCT-116 colon; 85.8 µM and 36.8 µM in the assay with SK-MEL-2 melanoma; over 100 µM with SN12C renal; over 100 µM in the assay with SF-268 CNS; over 100 µM with U251 CNS; over 100 µM in the assay with EKVX NSCLC. Besides, the GI50 in the assay on UO-31 renal was over 100 µM; with CAKI-1 renal, over 100 µM; in the assay with CCRF-CEM leukemia, 33.3 µM and 18.9 µM; in the assay with M19-MEL melanoma, 9.07 µM. The TGI in the assay on HCT-116 colon, in the assay on SK-MEL-2 melanoma, with SN12C renal, in the assay with SF-268 CNS, in the assay with U251 CNS and in the assay with EKVX NSCLC was over 100 µM in each case. The TGI in the assay on UO-31 renal was over 100 µM; in the assay on CAKI-1 renal, over 100 µM; in the assay on CCRF-CEM leukemia, over 100 µM; with M19-MEL melanoma, 31 µM.
Turning to `CCCCCCCCSC(SCCCCCCCC)=C1C(=O)N(c2ccccc2)N=C1C`, the TGI in the assay on HCT-116 colon was 38.7 µM; in the assay on SK-MEL-2 melanoma, over 100 µM; in the assay with SN12C renal it was over 100 µM; in the assay on SF-268 CNS it was over 100 µM; in the assay with U251 CNS, 34 µM; with EKVX NSCLC, over 100 µM. For the same molecule, the TGI is over 100 µM in the assay on UO-31 renal, 90.7 µM in the assay with CAKI-1 renal, 44 µM in the assay with CCRF-CEM leukemia and over 100 µM in the assay on M19-MEL melanoma.
Take `C[Si](C)(C)[C@@]1([Se]c2ccccc2)CC[C@@H]1C(=O)c1ccccc1`: the TGI in the assay with HCT-116 colon, in the assay with SK-MEL-2 melanoma, with SN12C renal, in the assay on SF-268 CNS, in the assay on U251 CNS and in the assay on EKVX NSCLC was over 100 µM in each case. Further, the TGI in the assay with UO-31 renal, in the assay on CAKI-1 renal, in the assay with CCRF-CEM leukemia and in the assay with M19-MEL melanoma was over 100 µM in each case.
Turning to `Nc1nc(Cl)cc(NCCCCCCCCCCNc2cc(Cl)nc(N)n2)n1`, the TGI in the assay with HCT-116 colon, with SK-MEL-2 melanoma, with SN12C renal, in the assay on SF-268 CNS, in the assay on U251 CNS and with EKVX NSCLC was over 100 µM each time. For the same molecule, the TGI with UO-31 renal, with CAKI-1 renal, in the assay on CCRF-CEM leukemia and in the assay with M19-MEL melanoma was over 100 µM in each case.
Consider `O=C1C=Cc2noc3cccc1c23`, for which the TGI stood at 4.47 µM with HCT-116 colon; 21.2 µM in the assay on SK-MEL-2 melanoma; 27.3 µM in the assay with SN12C renal; 12.4 µM with SF-268 CNS; 26.4 µM in the assay with U251 CNS; 10.2 µM in the assay on EKVX NSCLC. Further, the TGI in the assay on UO-31 renal came to 15.3 µM; in the assay with CAKI-1 renal it was 25.4 µM; with CCRF-CEM leukemia, 5.35 µM; with M19-MEL melanoma, 11.2 µM.
